Test results from ChEMBL document CHEMBL3351921, “Structure-activity relationships (SAR) and structure-kinetic relationships (SKR) of pyrrolopiperidinone acetic acids as CRTh2 antagonists” (Bioorg Med Chem Lett, 2014).

Key:
[1] = target: T1, Prostaglandin D2 receptor 2 (Homo sapiens, UniProt Q9Y5Y4); experiment: Antagonist activity at CRTh2 (unknown origin) stably expressed in PGD2-stimulated CHO.K1 cells preincubated for 1 hr by radio-labelled [35S]-GTPgammaS binding assay; format: functional, cell-based
T1 sequence (Q9Y5Y4 whole entry): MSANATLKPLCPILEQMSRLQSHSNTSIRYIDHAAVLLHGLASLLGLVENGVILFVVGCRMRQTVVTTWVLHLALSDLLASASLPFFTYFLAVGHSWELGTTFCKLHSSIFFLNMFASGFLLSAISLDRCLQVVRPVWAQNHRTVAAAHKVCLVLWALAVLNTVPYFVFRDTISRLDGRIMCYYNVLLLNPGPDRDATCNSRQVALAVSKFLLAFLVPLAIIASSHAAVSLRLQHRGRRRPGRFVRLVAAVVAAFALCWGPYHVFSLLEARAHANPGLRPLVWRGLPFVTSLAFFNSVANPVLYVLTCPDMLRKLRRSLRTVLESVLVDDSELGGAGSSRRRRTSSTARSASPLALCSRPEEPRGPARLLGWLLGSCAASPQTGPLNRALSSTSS

[2] = target: T2, Prostaglandin D2 receptor 2 (Homo sapiens) (UniProt Q9Y5Y4); settings: CHO.K1
T2 sequence (whole entry): T1 sequence (Q9Y5Y4 whole entry)
Description: Antagonist activity at CRTh2 (unknown origin) stably expressed in PGD2-stimulated CHO.K1 cells assessed as dissociation half-life at 5 to 10 times IC50 after 2 hrs by radio-labelled [35S]-GTPgammaS binding assay

[3] = target: T3, Thromboxane A2 receptor (Homo sapiens) (UniProt P21731); experiment: Inhibition of at prostanoid TP receptor (unknown origin) at 10 uM
T3 sequence (whole entry): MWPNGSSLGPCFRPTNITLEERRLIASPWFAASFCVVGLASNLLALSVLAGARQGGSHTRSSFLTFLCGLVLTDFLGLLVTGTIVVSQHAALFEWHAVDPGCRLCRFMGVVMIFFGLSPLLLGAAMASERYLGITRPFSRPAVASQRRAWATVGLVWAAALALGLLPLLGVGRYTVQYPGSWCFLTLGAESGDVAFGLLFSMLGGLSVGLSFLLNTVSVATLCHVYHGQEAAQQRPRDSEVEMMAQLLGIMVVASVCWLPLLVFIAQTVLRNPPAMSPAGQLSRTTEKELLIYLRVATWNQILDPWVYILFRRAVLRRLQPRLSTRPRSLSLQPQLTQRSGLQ

[4] = Apparent permeability across apical to basolateral side of human Caco2 cells at pH 7.4; format: ADME, cell-based; settings: Caco-2, pH 7.4
[5] = target: T4, Prostaglandin D2 receptor (Homo sapiens) (UniProt Q13258); experiment: Inhibition of at prostanoid DP1 receptor (unknown origin) at 10 uM
T4 sequence (whole entry): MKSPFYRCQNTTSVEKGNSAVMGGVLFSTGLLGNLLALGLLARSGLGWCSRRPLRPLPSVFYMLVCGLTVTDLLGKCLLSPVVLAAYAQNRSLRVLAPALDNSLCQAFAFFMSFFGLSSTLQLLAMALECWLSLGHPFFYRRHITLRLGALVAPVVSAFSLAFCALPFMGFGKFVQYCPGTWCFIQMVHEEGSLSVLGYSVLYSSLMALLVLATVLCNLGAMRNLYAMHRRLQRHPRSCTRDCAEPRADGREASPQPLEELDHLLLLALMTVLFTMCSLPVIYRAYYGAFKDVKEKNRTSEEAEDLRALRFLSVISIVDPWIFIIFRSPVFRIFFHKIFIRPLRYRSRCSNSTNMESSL

[6] = Dissociation constant, pKa of the compound by potentiometric method; format: physicochemical
[7] = AUC (0 to infinity) in rat at 1 mg/kg, iv; format: ADME, organism-based; set-up: time infinity, dose 1 mg/kg, route intravenous; settings: plasma
[8] = Cmax in rat at 1 mg/kg, iv; format: ADME, organism-based; set-up: dose 1 mg/kg, route intravenous; settings: in vivo
[9] = Oral bioavailability in rat at 10 mg/kg; format: ADME, organism-based; settings: in vivo
[10] = AUC (0 to infinity) in rat at 10 mg/kg, po; format: ADME, organism-based; set-up: time infinity, dose 10 mg/kg, route oral; settings: plasma
[11] = Cmax in rat at 10 mg/kg, po; format: ADME, organism-based; set-up: dose 10 mg/kg, route oral; settings: in vivo
[12] = Terminal half life in rat at 1 mg/kg, iv; format: ADME, organism-based; set-up: dose 1 mg/kg, route intravenous; settings: in vivo, read-out: beta t1/2 (converted)
[13] = Volume of distribution at steady state in rat at 1 mg/kg, iv; format: ADME, organism-based; set-up: dose 1 mg/kg, route intravenous; settings: in vivo, read-out: Vdss
[14] = Terminal half life in rat at 10 mg/kg, po; format: ADME, organism-based; set-up: dose 10 mg/kg, route oral; settings: in vivo, read-out: beta t1/2 (converted)
[15] = Clearance in rat at 1 mg/kg, iv; format: ADME, organism-based; set-up: dose 1 mg/kg, route intravenous; settings: in vivo
[16] = target: T1, Prostaglandin D2 receptor 2; experiment: Antagonist activity at CRTh2 (unknown origin) stably expressed in PGD2-stimulated CHO.K1 cells preincubated for 15 mins by radio-labelled [35S]-GTPgammaS binding assay; format: functional, cell-based
[17] = target: T1, Prostaglandin D2 receptor 2; experiment: Antagonist activity at CRTh2 (unknown origin) stably expressed in PGD2-stimulated CHO.K1 cells preincubated for 120 mins by radio-labelled [35S]-GTPgammaS binding assay; format: functional, cell-based
[18] = target: T1, Prostaglandin D2 receptor 2; experiment: Antagonist activity at CRTh2 (unknown origin) stably expressed in PGD2-stimulated CHO.K1 cells preincubated for 180 mins by radio-labelled [35S]-GTPgammaS binding assay; format: functional, cell-based
[19] = target: T1, Prostaglandin D2 receptor 2; experiment: Antagonist activity at CRTh2 (unknown origin) stably expressed in PGD2-stimulated CHO.K1 cells preincubated for 60 mins by radio-labelled [35S]-GTPgammaS binding assay; format: functional, cell-based
[20] = target: T1, Prostaglandin D2 receptor 2; experiment: Antagonist activity at CRTh2 (unknown origin) stably expressed in CHO.K1 cells co-mixing the compound and PGD2 by radio-labelled [35S]-GTPgammaS binding assay; format: functional, cell-based
[21] = target: T1, Prostaglandin D2 receptor 2; experiment: Antagonist activity at CRTh2 (unknown origin) stably expressed in PGD2-stimulated CHO.K1 cells preincubated for 30 mins by radio-labelled [35S]-GTPgammaS binding assay; format: functional, cell-based

| Structure (SMILES) | IC50 [1] [nM] | T1/2 [2] [h] | other results |
| --- | --- | --- | --- |
| CCS(=O)(=O)c1ccccc1Cc1c2c(n(CC(=O)O)c1C)CCNC2=O | 550 |  |  |
| Cc1c(Cc2ccccc2S(=O)(=O)N2CCOCC2)c2c(n1CC(=O)O)CCNC2=O | 22 | 0.6 |  |
| Cc1c(Cc2ccccc2S(=O)(=O)c2ccccc2)c2c(=O)n(C(F)F)ccc2n1CC(=O)O | 2.2 | 21 | inhibition [3]: < 30%; Papp A→B [4]: 0.4 ×10⁻⁶ cm/s; inhibition [5]: < 30% |
| Cc1c(Cc2ccccc2S(=O)(=O)c2ccccc2)c2c(n1CC(=O)O)CCN(C(C)C)C2=O | 9 | 2.6 | pKa [6]: 2.9 |
| Cc1c(Cc2ccccc2Oc2ccccc2)c2c(n1CC(=O)O)CCNC2=O | 530 |  |  |
| Cc1c(Cc2ccccc2-c2cccc3ccccc23)c2c(n1CC(=O)O)CCNC2=O | 480 |  |  |
| Cc1c(Cc2ccccc2S(=O)(=O)C2CCCCC2)c2c(n1CC(=O)O)CCNC2=O | 28 |  |  |
| Cc1c(Cc2ccccc2S(=O)(=O)c2ccccc2)c2c(n1CC(=O)O)CCN(C(C)C(F)(F)F)C2=O (centres undefined) | 6 | 2.1 | Papp A→B [4]: 0.6 ×10⁻⁶ cm/s |
| Cc1c(Cc2ccc(S(C)(=O)=O)cc2)c2c(n1CC(=O)O)CCNC2=O | 900 |  |  |
| CCN(Cc1ccccc1Cc1c2c(n(CC(=O)O)c1C)CCNC2=O)C(=O)C1CC1 | 240 |  |  |
| Cc1c(Cc2ccccc2S(=O)(=O)c2ccccc2)c2c(Cl)nccc2n1CC(=O)O | 16 | 2 |  |
| Cc1c(Cc2ccccc2C(O)c2ccccc2)c2c(n1CC(=O)O)CCNC2=O (centres undefined) | 32 | 0.4 | pKa [6]: 3.1 |
| Cc1c(Cc2ccccc2Cc2ccccc2)c2c(n1CC(=O)O)CCNC2=O | 120 |  | Papp A→B [4]: 0.2 ×10⁻⁶ cm/s |
| Cc1c(Cc2ccccc2S(=O)(=O)c2ccccc2)c2c(=O)n(C)ccc2n1CC(=O)O |  | 8 | inhibition [3]: < 30%; Papp A→B [4]: 0.1 ×10⁻⁶ cm/s; inhibition [5]: < 30% |
| Cc1c(Cc2ccccc2C(=O)c2ccccc2)c2c(n1CC(=O)O)CCNC2=O | 810 |  |  |
| Cc1c(Cc2ccccc2S(=O)(=O)c2ccccc2)c2c(n1CC(=O)O)CCN(Cc1ccccc1)C2=O |  | 6.7 | inhibition [3]: < 30%; pKa [6]: 3.3; inhibition [5]: < 30% |
| Cc1c(Cc2ccccc2S(=O)(=O)c2ccc(F)cc2)c2c(n1CC(=O)O)CC(C)(C)NC2=O |  | 18 |  |
| COc1ccc(S(=O)(=O)c2ccc(F)cc2)c(Cc2c3c(n(CC(=O)O)c2C)CC(C)(C)NC3=O)c1 | 5 | 20 |  |
| Cc1c(Cc2ccccc2Cn2ccnn2)c2c(n1CC(=O)O)CCNC2=O | 800 |  |  |
| Cc1c(Cc2ccccc2S(=O)(=O)c2ccccc2)c2c(=O)[nH]ccc2n1CC(=O)O |  | 1.3 | Papp A→B [4]: 0.1 ×10⁻⁶ cm/s |

Further lines, with some results ahead:

| IC50 [1] [nM] | T1/2 [2] [h] | Structure (SMILES) | other results |
| --- | --- | --- | --- |
|  | 1.1 | Cc1c(Cc2ccccc2S(=O)(=O)c2ccccc2F)c2c(n1CC(=O)O)CCNC2=O |  |
|  | 1.8 | COC(=O)c1ccc(Cc2c3c(n(CC(=O)O)c2C)CCNC3=O)c(S(=O)(=O)c2ccccc2)c1 |  |
|  | 0.4 | COc1cccc(Cc2c3c(n(CC(=O)O)c2C)CCNC3=O)c1S(=O)(=O)c1ccccc1 |  |
| 4500 |  | COc1cccc(S(=O)(=O)c2ccccc2)c1Cc1c2c(n(CC(=O)O)c1C)CCNC2=O |  |
| 170 |  | Cc1c(Cc2ccc(S(=O)(=O)c3ccccc3)cc2)c2c(n1CC(=O)O)CCNC2=O |  |
|  | 0.9 | Cc1c(Cc2ccc(C(F)(F)F)cc2S(=O)(=O)c2ccccc2)c2c(n1CC(=O)O)CCNC2=O | inhibition [3]: < 30%; inhibition [5]: < 30% |
|  | 5.7 | Cc1c(Cc2cc(Br)ccc2S(=O)(=O)c2ccccc2)c2c(n1CC(=O)O)CCNC2=O |  |
| 3 | 0.9 | Cc1c(Cc2ccc(S(=O)(=O)Cc3ccccc3)cc2)c2c(n1CC(=O)O)CCNC2=O |  |
| 7 | 5.3 | Cc1c(Cc2ccccc2S(=O)(=O)c2ccccc2)c2c(n1CC(=O)O)CCN(C)C2=O | pKa [6]: 2.9 |
| 26 | 0.6 | Cc1c(Cc2ccccc2S(=O)(=O)N(C)Cc2ccccc2)c2c(n1CC(=O)O)CCNC2=O |  |
|  | 4.2 | COc1ccc(S(=O)(=O)c2ccccc2)c(Cc2c3c(n(CC(=O)O)c2C)CCNC3=O)c1 | inhibition [3]: < 30%; inhibition [5]: < 30% |
|  | 0.8 | Cc1c(Cc2ccccc2S(=O)(=O)c2cccc(F)c2)c2c(n1CC(=O)O)CCNC2=O | inhibition [3]: < 30%; inhibition [5]: < 30% |
| 3.3 | 3.3 | Cc1c(Cc2ccccc2S(=O)(=O)c2ccc(F)cc2)c2c(n1CC(=O)O)CCNC2=O | inhibition [3]: < 30%; AUC(0-inf) [7]: 2460 ng·h/mL; Cmax [8]: 5740 ng/mL; bioavailability [9]: 1.5%; AUC(0-inf) [10]: 380 ng·h/mL; Cmax [11]: 102 ng/mL; half-life [12]: 2.2 h; Vd [13]: 0.19 L/kg; inhibition [5]: < 30%; half-life [14]: 5.6 h; clearance [15]: 6.8 mL/min/kg |
| 28 | 0.6 | Cc1c(Cc2cc(C#N)ccc2S(=O)(=O)c2ccccc2)c2c(n1CC(=O)O)CCNC2=O |  |
| 430 |  | Cc1c(Cc2ccccc2S(=O)(=O)c2ccccc2)c2c(n1[C@H](C)C(=O)O)CCNC2=O |  |
|  | 1.2 | Cc1c(Cc2ccccc2S(=O)(=O)c2cccc(Cl)c2)c2c(n1CC(=O)O)CCNC2=O | inhibition [3]: < 30%; pKa [6]: 3.1; inhibition [5]: < 30% |
| 240 |  | CNC(=O)c1cccc(S(=O)(=O)c2ccccc2Cc2c3c(n(CC(=O)O)c2C)CCNC3=O)c1 |  |
| 6.6 | 1.3 | Cc1c(Cc2ccccc2S(=O)(=O)c2ccc(OC(F)(F)F)cc2)c2c(n1CC(=O)O)CCNC2=O |  |
| 91 |  | Cc1c(Cc2ccccc2S(=O)(=O)c2ccccc2)c2c(n1[C@@H](C)C(=O)O)CCNC2=O |  |
|  | 3.2 | COc1ccc(S(=O)(=O)c2ccccc2Cc2c3c(n(CC(=O)O)c2C)CCNC3=O)cc1 |  |
| 10 | 4.6 | CNC(=O)c1ccc(Cc2c3c(n(CC(=O)O)c2C)CCNC3=O)c(S(=O)(=O)c2ccccc2)c1 |  |
| 7.1 | 23 | COc1ccc(S(=O)(=O)c2ccc(F)cc2)c(Cc2c3c(n(CC(=O)O)c2C)CCNC3=O)c1 | inhibition [3]: < 30%; AUC(0-inf) [7]: 613 ng·h/mL; Cmax [8]: 1960 ng/mL; IC50 [16]: 6.9 nM; IC50 [17]: 2.4 nM; bioavailability [9]: 1.2%; IC50 [18]: 2.1 nM; AUC(0-inf) [10]: 76 ng·h/mL; Cmax [11]: 36 ng/mL; IC50 [19]: 3.6 nM; pKa [6]: 3.1; IC50 [20]: 10 nM; half-life [12]: 0.3 h; IC50 [21]: 4.1 nM; Vd [13]: 0.31 L/kg; inhibition [5]: < 30%; half-life [14]: 2.2 h; clearance [15]: 27 mL/min/kg |
| 19 |  | Cc1c(Cc2ccc(C(=O)O)cc2S(=O)(=O)c2ccccc2)c2c(n1CC(=O)O)CCNC2=O |  |
| 8.5 | 1.2 | Cc1c(Cc2ccccc2S(=O)(=O)c2ccc(Cl)cc2)c2c(n1CC(=O)O)CCNC2=O |  |
|  | 1.7 | Cc1c(Cc2cc(F)ccc2S(=O)(=O)c2ccccc2)c2c(n1CC(=O)O)CCNC2=O |  |
